The source of these data is ChEMBL document CHEMBL1201862, “PubChem BioAssay data set” (2004).

Among the test systems are ACHN; CAKI-1; DU-145; HCT-15; HT-29; Hs-578T; KM12; M14; MCF7; Malme-3M; NCI-H460; OVCAR-8; SNB-19; SR; T47D; TK-10; MDA-MB-435; OVCAR-3; UACC-62.
Test in all cases: NCI tumour cell line growth inhibition, 48 h

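All cell lines were grown in 96-well plates and treated with compound for 48 hours. GI50 is the concentration that inhibits growth by half.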 Activity calls are given as the source filed them. Rule as the data show it: active = GI50 up to about 1.1 µM and inactive = higher.

On to `CCC(=O)C1(c2ccccc2)CCN(C)CC1`, for which the GI50 is > 100 µM (inactive) in the assay with ACHN; > 100 µM (inactive) in the assay on CAKI-1; > 100 µM (inactive) in the assay with DU-145; greater than 100 µM in the assay on HCT-15; > 100 µM (inactive) with HT-29; > 100 µM (inactive) with Hs-578T. The GI50 in the assay on KM12, in the assay with M14, in the assay on MCF7, in the assay with Malme-3M, with NCI-H460 and in the assay with OVCAR-8 was > 100 µM (inactive) each time. Besides, the GI50 with SNB-19, in the assay with SR, in the assay on T47D and in the assay with TK-10 was > 100 µM (inactive) in each case.

Turning to `NC(CSC(c1ccccc1)(c1ccccc1)c1ccccc1)C(=O)O` (centres undefined), the GI50 with ACHN was 7.89 µM (inactive); with CAKI-1, 4.41 µM (inactive); in the assay on HCT-15 it was 0.925 µM; with HT-29, 2.94 µM (inactive); with Hs-578T, 1.61 µM (inactive); in the assay on KM12, 0.962 µM (active). In addition, the GI50 was 0.538 µM (active) in the assay on M14; 0.333 µM (active) with MDA-MB-435; 2.17 µM (inactive) in the assay on Malme-3M; 0.658 µM (active) in the assay on NCI-H460; 1.7 µM (inactive) in the assay with OVCAR-3; 0.904 µM (active) in the assay on OVCAR-8. For the same compound, the GI50 was 1.22 µM (inactive) with SNB-19, 0.684 µM (active) in the assay on T47D, 19.9 µM (inactive) in the assay on TK-10 and 0.685 µM (active) in the assay on UACC-62.

Turning to `N/C(=N\c1ccccc1)c1ccccc1N`, the GI50 was > 100 µM (inactive) in the assay with ACHN; > 100 µM (inactive) with CAKI-1; > 100 µM (inactive) with DU-145; greater than 100 µM with HCT-15; > 100 µM (inactive) in the assay on HT-29; > 100 µM (inactive) with Hs-578T. The GI50 with KM12, with M14, with MCF7, with MDA-MB-435, in the assay on NCI-H460 and with OVCAR-3 was > 100 µM (inactive) each time. The GI50 with OVCAR-8, with SNB-19, in the assay with SR, in the assay with TK-10 and in the assay on UACC-62 was > 100 µM (inactive) each time.

As to `CCOC(=O)/C1=C(\C)N(Cc2ccccc2)C(=O)c2ccccc2C(=O)c2c(OC(C)=O)ccc(OC(C)=O)c21`, the GI50 was > 100 µM (inactive) in the assay with ACHN; 72.3 µM (inactive) with CAKI-1; 69.3 µM in the assay on HCT-15; 40.2 µM (inactive) in the assay with HT-29; 33.5 µM (inactive) in the assay with Hs-578T; 47 µM (inactive) in the assay with KM12. The GI50 was 21.1 µM (inactive) in the assay with MCF7; 47.6 µM (inactive) with MDA-MB-435; 69.8 µM (inactive) with Malme-3M; 39.4 µM (inactive) in the assay with NCI-H460; 23.1 µM (inactive) in the assay on OVCAR-3; 67.8 µM (inactive) in the assay with OVCAR-8. Further, the GI50 was > 100 µM (inactive) in the assay on SNB-19; 20.5 µM (inactive) in the assay with SR; > 100 µM (inactive) in the assay on T47D; 58.3 µM (inactive) in the assay on TK-10; 53.2 µM (inactive) in the assay on UACC-62.

On to `O=C(c1ccccc1)N1OCCC1Nc1ccc(Br)cc1` (centres undefined), for which the GI50 in the assay on ACHN was 0.615 µM (active); with CAKI-1, 4.03 µM (inactive); in the assay on DU-145, 6.24 µM (inactive); in the assay on HCT-15, 0.604 µM; in the assay on HT-29, 0.818 µM (active); in the assay with Hs-578T, > 10 µM (inactive). The GI50 in the assay with M14 was 4.99 µM (inactive); with MCF7 it was 5.97 µM (inactive); in the assay with MDA-MB-435 it was 0.499 µM (active); in the assay on Malme-3M, 3.34 µM (inactive); in the assay with NCI-H460, 5.45 µM (inactive); in the assay on OVCAR-3, > 10 µM (inactive). Also, the GI50 with OVCAR-8, with SNB-19, with T47D and in the assay with TK-10 was > 10 µM (inactive) each time.

On to `O=C1CC(Cc2n[nH]c3c2CCCC3)CC(=O)N1`, for which the GI50 in the assay on CAKI-1 was > 100 µM (inactive); with DU-145, > 100 µM (inactive); with HCT-15 it was greater than 100 µM; in the assay on HT-29, > 100 µM (inactive); in the assay with KM12, > 100 µM (inactive); in the assay with M14, > 100 µM (inactive). Moreover, the GI50 in the assay on MCF7, with MDA-MB-435, in the assay with Malme-3M, in the assay with OVCAR-3, with OVCAR-8 and in the assay on SR was > 100 µM (inactive) throughout. Moreover, the GI50 in the assay on T47D, with TK-10 and with UACC-62 was > 100 µM (inactive) in each case.

As for `CCOC(=O)/C(C[C@H]1OC(C)(C)O[C@@H]1[C@H]1COC(C)(C)O1)=N/O`, the GI50 was > 100 µM (inactive) with ACHN; > 100 µM (inactive) in the assay with CAKI-1; > 100 µM (inactive) with DU-145; greater than 100 µM in the assay on HCT-15; > 100 µM (inactive) in the assay on HT-29; > 100 µM (inactive) in the assay with Hs-578T. Further, the GI50 with KM12, with M14, in the assay with MCF7, with MDA-MB-435, in the assay with Malme-3M and in the assay with NCI-H460 was > 100 µM (inactive) throughout. The GI50 with OVCAR-3, in the assay on OVCAR-8, in the assay on SNB-19, in the assay with TK-10 and with UACC-62 was > 100 µM (inactive) in each case.

For the compound `C[C@H](NC(=O)C(C)(Cc1ccc(O)cn1)NC(=O)c1ccccc1)c1ccccc1` (some centres undefined), the GI50 with ACHN was > 100 µM (inactive); in the assay on CAKI-1, > 100 µM (inactive); with DU-145 it was > 100 µM (inactive); with HCT-15, greater than 100 µM; in the assay with HT-29, > 100 µM (inactive); in the assay on Hs-578T it was > 100 µM (inactive). The GI50 in the assay on KM12, in the assay with M14, with MCF7, in the assay on MDA-MB-435, in the assay with Malme-3M and with OVCAR-3 was > 100 µM (inactive) each time. Besides, the GI50 in the assay with OVCAR-8, in the assay on SNB-19, with T47D, in the assay with TK-10 and in the assay on UACC-62 was > 100 µM (inactive) each time.

`SC1=NNC2(C(S)=N1)c1ccccc1-c1ccccc12`: the GI50 with CAKI-1 was > 10 µM (inactive); in the assay with DU-145, > 10 µM (inactive); with HCT-15, greater than 10 µM; with HT-29 it was > 10 µM (inactive); with Hs-578T, 0.394 µM (active); in the assay with KM12 it was > 10 µM (inactive). Also, the GI50 is > 10 µM (inactive) in the assay with M14; 5.37 µM (inactive) in the assay with MCF7; > 10 µM (inactive) in the assay on Malme-3M; > 10 µM (inactive) in the assay on NCI-H460; > 10 µM (inactive) in the assay with OVCAR-8; > 10 µM (inactive) in the assay on SR. Besides, the GI50 with T47D was 4.83 µM (inactive); in the assay on TK-10, > 10 µM (inactive); in the assay with UACC-62, > 10 µM (inactive).

Take `COc1c(OC(C)C)c(OC(C)C)c2oc(=O)n3c2c1C(c1ccccc1-n1c(C)ccc1C)C=C3` (centres undefined): the GI50 in the assay with ACHN was 48.8 µM (inactive); with CAKI-1, > 100 µM (inactive); in the assay with DU-145, 60.4 µM (inactive); with HCT-15 it was 61.8 µM; in the assay on HT-29, 12.6 µM (inactive); with Hs-578T it was 18.5 µM (inactive). Further, the GI50 in the assay on KM12 is 22.9 µM (inactive); with M14, 29.2 µM (inactive); in the assay on MCF7, 33 µM (inactive); in the assay with MDA-MB-435 it was 35.2 µM (inactive); in the assay with Malme-3M it was 13 µM (inactive); in the assay with NCI-H460, 41.9 µM (inactive). Moreover, the GI50 in the assay with OVCAR-3 was > 100 µM (inactive); in the assay on OVCAR-8, 35.3 µM (inactive); with SNB-19 it was > 100 µM (inactive); in the assay on TK-10, > 100 µM (inactive); in the assay with UACC-62 it was 44.7 µM (inactive).

`Cc1ccc([N+](=O)[O-])cc1S(=O)(=O)Nc1ccc(C2=NN(S(=O)(=O)c3cc([N+](=O)[O-])ccc3C)C(c3ccccc3O)C2)cc1` (centres undefined): the GI50 in the assay with ACHN is 80.4 µM (inactive); in the assay on CAKI-1, > 100 µM (inactive); in the assay with DU-145 it was > 100 µM (inactive); in the assay with HCT-15 it was greater than 100 µM; with HT-29, > 100 µM (inactive); in the assay with KM12 it was > 100 µM (inactive). Besides, the GI50 with M14 is > 100 µM (inactive); with MCF7, > 100 µM (inactive); with MDA-MB-435 it was > 100 µM (inactive); in the assay on Malme-3M it was > 100 µM (inactive); in the assay with NCI-H460, > 100 µM (inactive); in the assay on OVCAR-3, 67.3 µM (inactive). Further, the GI50 is > 100 µM (inactive) with OVCAR-8; 42.4 µM (inactive) in the assay with SNB-19; > 100 µM (inactive) in the assay on SR; > 100 µM (inactive) with T47D; 52.5 µM (inactive) with TK-10; 58.5 µM (inactive) in the assay on UACC-62.

Regarding `CC(CC(N)C(=O)O)C(=O)O` (centres undefined), the GI50 is > 100 µM (inactive) in the assay with ACHN; > 100 µM (inactive) with CAKI-1; > 100 µM (inactive) in the assay on DU-145; greater than 100 µM in the assay with HCT-15; > 100 µM (inactive) with HT-29; > 100 µM (inactive) with Hs-578T. Moreover, the GI50 in the assay on KM12, in the assay on M14, in the assay on MDA-MB-435, in the assay on Malme-3M, with NCI-H460 and in the assay on OVCAR-3 was > 100 µM (inactive) in each case. Moreover, the GI50 in the assay on OVCAR-8, with SNB-19, with SR, in the assay on T47D, in the assay with TK-10 and in the assay on UACC-62 was > 100 µM (inactive) in each case.
